Measurements reported in patent publication US9637498B2, “Substituted thieno[2,3-C]pyridazine-6-carboxamide analogs as positive allosteric modulators of the muscarinic acetylcholine receptor M4” (Vanderbilt University, priority 2013, dated 2017).

Biological target: T1, mAChR M4 (Homo sapiens, UniProt P08173)
T1 construct: expressed in transfected cells; host or cells: CHO-K1 cells, also stably transfected with the chimeric G-protein Gqi5
T1 sequence (P08173 1-479): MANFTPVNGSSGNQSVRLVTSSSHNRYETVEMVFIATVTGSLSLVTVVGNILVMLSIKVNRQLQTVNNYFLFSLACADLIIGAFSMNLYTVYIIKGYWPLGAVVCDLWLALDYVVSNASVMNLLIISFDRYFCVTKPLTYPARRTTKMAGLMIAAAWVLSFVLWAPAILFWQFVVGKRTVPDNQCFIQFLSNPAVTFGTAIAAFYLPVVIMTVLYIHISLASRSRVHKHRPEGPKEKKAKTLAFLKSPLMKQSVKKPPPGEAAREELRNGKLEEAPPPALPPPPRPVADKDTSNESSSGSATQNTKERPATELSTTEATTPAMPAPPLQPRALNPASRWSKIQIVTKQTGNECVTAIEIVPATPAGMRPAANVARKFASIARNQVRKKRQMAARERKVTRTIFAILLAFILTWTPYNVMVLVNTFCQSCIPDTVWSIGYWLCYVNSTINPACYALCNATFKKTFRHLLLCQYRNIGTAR
Assay: mAChR M4 cell-based functional assay (calcium mobilization, potentiation of EC20 acetylcholine response)
Settings: for Emax at 30 µM: % ACh maximum at 30 μM; for EC50: CHO-K1 cells expressing mAChR M4 (Gqi5), calcium flux, increase in EC20 acetylcholine response, >10,000 estimated where the curve has no plateau
Text: Chinese hamster ovary (CHO-K1) cells stably expressing rat (r)M1 were purchased from the American Type Culture Collection and cultured according to their indicated protocol. CHO cells stably expressing human (h)M2, hM3, and hM5 were described previously (Levey et al., 1991); hM1 and hM4 cDNAs were purchased from Missouri S&T cDNA Resource; rM4 cDNA was provided by T. I. Bonner (National Institutes of Health, Bethesda, Md.). rM2 and rM3 were cloned from a rat brain cDNA library and sequence verified. hM1, rM2, rM3, hM4, and rM4 cDNAs were used to stably transfect CHO-K1 cells purchased from the American Type Culture Collection using Lipofectamine 2000. To make stable rM2, hM2, hM4, and rM4 cell lines for use in calcium mobilization assays, these cells also were stably transfected with a chimeric G-protein (Gqi5) (provided by B. R. Conklin, University of California, San Francisco) using Lipofectamine 2000. rM1, hM1, rM3, hM3, rM5, and hM5 cells were grown in Ham's F-12 medium containing 10% heat-inactivated fetal bovine serum (FBS), 20 mM HEPES, and 50 µg/mL G418 sulfate. rM2-Gqi5, hM2-Gqi5, and hM4-Gqi5 cells were grown in the same medium also containing 500 µg/mL Hygromycin B. Stable rM4-Gqi5 cells were grown in DMEM containing 10% heat-inactivated FBS, 20 mM HEPES, 400 μg/mL G418 sulfate, and 500 μg/mL Hygromycin B.
For high throughput measurement of agonist-evoked increases in intracellular calcium, CHO-K1 cells stably expressing muscarinic receptors were plated in growth medium lacking G418 and hygromycin at 15,000 cells/20 μL/well in Greiner 384-well black-walled, tissue culture (TC)-treated, clear-bottom plates (VWR). Cells were incubated overnight at 37° C. and 5% CO2. The next day, cells were washed using an ELX 405 (BioTek) with four washes (80 μL) of assay buffer then aspirated to 20 μL. Next, 20 μL of 16 μM Fluo-4/acetoxymethyl ester (Invitrogen, Carlsbad, Calif.) prepared as a 2.3 mM stock in DMSO and mixed in a 1:1 ratio with 10% (w/v) Pluronic F-127 and diluted in assay buffer was added to the wells and the cell plates were incubated for 50 min at 37° C. and 5% CO2. Dye was removed by washing with the ELX 405 (four 80 μL washes of assay buffer) then aspirated to 20 μL. Compound master plates were formatted in an 11 point CRC format (1:3 dilutions) in 100% DMSO with a starting concentration of 10 mM using the BRAVO liquid handler (Agilent). Test compound CRCs were then transferred to daughter plates (240 nL) using the Echo acoustic plate reformatter (Labcyte, Sunnyvale, Calif.) and then diluted into assay buffer (40 μL) to a 2× stock using a Thermo Fisher Combi (Thermo Fisher Scientific, Waltham, Mass.).
Calcium flux was measured using the Functional Drug Screening System (FDSS) 6000 (Hamamatsu Corporation, Tokyo, Japan) as an increase in the fluorescent static ratio. Compounds were applied to cells (20 μL, 2×) using the automated system of the FDSS 6000 at 4 s into the 300 s protocol and the data were collected at 1 Hz. At 144 s into the 300 s protocol, 10 μL of an EC20 concentration of the muscarinic receptor agonist acetylcholine was added (5×), followed by the addition of 12 μL an EC80 concentration of acetylcholine at the 230 s time point (5×). Agonist activity was analyzed as a concentration-dependent increase in calcium mobilization upon compound addition. Positive allosteric modulator activity was analyzed as a concentration-dependent increase in the EC20 acetylcholine response. Antagonist activity was analyzed as a concentration-dependent decrease in the EC80 acetylcholine response. Concentration-response curves were generated using a four-parameter logistical equation in XLFit™ curve fitting software (IDBS, Bridgewater, N.J.) for Excel (Microsoft, Redmond, Wash.) or Prism (GraphPad Software, Inc., San Diego, Calif.). […]

Row | Emax at 30 µM [%] | EC50 [µM] | Structure (SMILES)
1 | 68 | 1.4 | COc1ccc(CNC(=O)c2cc3c(C)c(C)nnc3s2)cc1F [B4]
2 | 72 | 4.3 | Cc1nnc2sc(C(=O)NC3CC3)cc2c1C [B7]
3 | 69 | 0.91 | Cc1nnc2sc(C(=O)NC3CN(c4cccnc4)C3)c(C)c2c1C [B20]
4 | 53 | 1 | Cc1nnc2sc(C(=O)NC3CN(c4ccc(C(F)(F)F)nc4)C3)cc2c1C [B3]
5 | 35 | > 10 | Cc1nnc2sc(C(=O)NC3CC(F)(F)C3)c(C3CC3)c2c1C [B17]
6 | 33 | 5.2 | Cc1nnc2sc(C(=O)NC3CCC3)c(C3CC3)c2c1C [B15]
7 | 38 | 4.4 | COc1ccc(CNC(=O)c2sc3nnc(C)c(C)c3c2C2CC2)cc1F [B18]
8 | – | > 10 | Cc1nnc2sc(C(=O)NC3CCN(c4ccccc4)C3)cc2c1C (centres unmarked) [B5]
9 | 65 | > 10 | Cc1nnc2sc(C(=O)NC3COC3)c(C)c2c1C [B23]
10 | 35 | > 10 | Cc1nnc2sc(C(=O)NC3CC3)c(C3CC3)c2c1C [B11]
11 | – | > 10 | COc1ccc(C2CC2NC(=O)c2sc3nnc(C)c(C)c3c2C2CC2)cc1 (centres unmarked) [B12]
12 | 51 | 2.1 | COc1ccc(C2CC2NC(=O)c2sc3nnc(C)c(C)c3c2C)cc1 (centres unmarked) [B21]
13 | 59 | 2 | COc1ccc(CNC(=O)c2sc3nnc(C)c(C)c3c2C)cc1F [B9]
14 | 36 | 3.7 | COc1ccc(CNC(=O)c2sc3nnc(C)c(C)c3c2Br)cc1 [B2]
15 | 68 | > 10 | Cc1nnc2sc(C(=O)NC3CC3)c(C)c2c1C [B14]
16 | – | > 10 | Cc1nnc2sc(C(=O)N3CCC(c4ccccc4)C3)c(C)c2c1C (centres unmarked) [B19]
17 | – | > 10 | Cc1nnc2sc(C(=O)NCc3ccc(S(=O)(=O)C(F)(F)F)cc3)c(Br)c2c1C [B1]
18 | 24 | 3.1 | Cc1nnc2sc(C(=O)NC3CN(c4ccc(C(F)(F)F)nc4)C3)c(C3CC3)c2c1C [B22]
19 | – | > 10 | Cc1nnc2sc(C(=O)N3CCC(c4ccccc4)C3)c(C3CC3)c2c1C (centres unmarked) [B16]
20 | 76 | 3.9 | Cc1nnc2sc(C(=O)NC3COC3)cc2c1C [B6]
21 | – | > 10 | Cc1nnc2sc(C(=O)N3CC(c4ccccc4)C3)c(C3CC3)c2c1C [B8]
22 | 46 | ~9 | Cc1nnc2sc(C(=O)NC3COC3)c(C3CC3)c2c1C [B13]
